Assay results taken from patent US10538794B2, “Oligosaccharide libraries and methods of production” (Emory University, priority 2016, dated 2020).
Entries after “also recorded” stand apart in the source; their conditions may differ.

How the values were obtained:
cells = assay: CORA with the isomer Ac3GlcNAc-β-Bn: secretion of Bn-O-glycans; assay type: cell-based
Protocol: CORA is an approach for both amplifying and profiling the mucin-type O-glycome in living cells. […] For example, MS analyses of β-eliminated O-glycans from WEHI-3 cells have not identified sialyl-LeX on core 2 O-glycans, a critical component on PSGL-1 recognized by P-selectin, which binds WEHI-3 cells. […] Thus the novel structures identified are natural O-glycans, mostly present on glycoproteins at low abundance.
CORA was performed on cells with mutant or wild-type C1galt1c1 (Cosmc), a chaperone known to be essential for T-synthase activity. Only cells with functional Cosmc and active T-synthase secreted Bn-O-glycans when we administered Ac3GalNAc-α-Bn (FIG. 2A-D).
Compound was added to complete media, and media was collected after incubation with cells. Media was run over a 10-kDa centrifugal filter (Amicon Ultra 4, Millipore) for ˜30 min at 2,465 g, and flow-through was collected. Bn-O-glycans were subsequently purified from flow-through with a Sep-Pak 3-cc C18 cartridge (Waters) by gravity chromatography. […]
(§1) Dried samples were permethylated. […] Spotted: 0.5 μl of matrix (10 mg/ml […] (Sigma), 50% (vol/vol) acetonitrile, 0.1% (vol/vol) TFA) and 0.5 μl of sample on an Anchorchip target plate, air dried the spots and analyzed by MALDI-TOF-MS using an Ultraflex-II TOF-TOF system (Bruker Daltonics). […]

[1] = tested on: breast cancer cells (MDA-MB-231); assay: CORA: Bn-O-glycans in media of MDA-MB-231 cells incubated with precursor, MALDI-TOF-MS; assay type: cell-based; details: MDA-MB-231, 0-250 μM; for lowest concentration at which Bn-O-glycans with the predicted sialylated core 2 structure were observed: 3 d
Protocol: (§2) To assess whether peracetylation of Bn-α-GalNAc enhances uptake and subsequent sensitivity, breast cancer cells (MDA-MB-231) were incubated with 0-250 μM Ac3GalNAc-α-Bn or Bn-α-GalNAc for 3 d. […] Further, peracetylation of Bn-α-GalNAc was stable in complete media for at least 3 d. Thus, peracetylation improved sensitivity, and at such low concentrations potential side effects should be limited, as explored below.
To optimize conditions, MDA-MB-231 cells were cultured with 0-250 μM Ac3GalNAc-α-Bn for 2-4 d. […] Thus, CORA should be performed with low concentrations of Ac3GalNAc-α-Bn. For most subsequent studies, cells were incubated with 50 μM Ac3GalNAc-α-Bn for 3 d.
Ac3GalNAc-α-Bn or Bn-α-GalNAc was dissolved to 50 or 100 mM in DMSO and further diluted to 5-250 μM in complete media with 5% (vol/vol) FBS, except for HUVEC and human dermal fibroblast cultures, which were incubated in ATCC preformulated media. Media with compound was administered 1 d (most cells) or 2 d (HUVECs and human dermal fibroblasts) after seeding. Cells were then incubated for 2-4 d with compound before media was collected.
(§3) Compound was added to complete media, and media was collected after incubation with cells. Media was run over a 10-kDa centrifugal filter (Amicon Ultra 4, Millipore) for ˜30 min at 2,465 g, and flow-through was collected. Bn-O-glycans were subsequently purified from flow-through with a Sep-Pak 3-cc C18 cartridge (Waters) by gravity chromatography. The column was equilibrated by two washes with 2 ml of acetonitrile and four washes with 2 ml of 0.1% (vol/vol) trifluoracetic acid (TFA). Media was applied and the column was washed four times with 2 ml of 0.1% (vol/vol) TFA for each wash. Bn-O-glycans were then eluted with two 1.5-ml applications of 50% (vol/vol) acetonitrile, 0.1% (vol/vol) TFA. Eluent was divided into three fractions, concentrated by CentriVap to remove organic solvents, and lyophilized.
Dried samples were permethylated. NaOH-DMSO (200 μl) slurry was added followed by 200 μl of methyl iodide to samples. Samples were shaken for 30 min and then spun down at 5,000 g for 5 min. Supernatant was collected and chloroform extraction was performed to isolate permethylated glycans. Chloroform (500 μl) and 500 μl of water was added to supernatant. The samples were mixed and centrifuged at 5,000 g for 1 min. Two more washes were performed with 500 μl of water each before evaporating chloroform by CentriVap for 30 min. Bn-O-glycans were then resuspended in 25 or 50 μl of 50% (vol/vol) methanol. Spotted: 0.5 μl of matrix (10 mg/ml […] (Sigma), 50% (vol/vol) acetonitrile, 0.1% (vol/vol) TFA) and 0.5 μl of sample on an Anchorchip target plate, air dried the spots and analyzed by MALDI-TOF-MS using an Ultraflex-II TOF-TOF system (Bruker Daltonics). […]

Molt-4 = assay: CORA: Bn-O-glycans from media of Molt-4 cells, MALDI-TOF-MS; assay type: cell-based; details: Molt-4, 50 μM, 3 d
Protocol: (§4) Adherent (HEK293) and suspension (Molt-4) cells were cultured in complete media containing 50 μM Ac3GalNAc-α-Bn or vehicle (dimethyl sulfoxide (DMSO)) for 3 d. Putative Bn-O-glycans from the media were separated from larger material with a cutoff membrane, purified by C18 chromatography, permethylated and analyzed by MALDI-TOF-MS. Here as elsewhere, the permethylated nonsulfated and/or nonphosphorylated glycans were analyzed.
as §3, with “Bn-O-glycans were then eluted with two 1.5-ml applications of 50% (vol/vol) acetonitrile, 0.1% (vol/vol) TFA. Eluent was divided into three fractions, concentrated by CentriVap to remove organic solvents, and lyophilized.” left out
as §1

HEK293 = assay: CORA: Bn-O-glycans from media of HEK293 cells, MALDI-TOF-MS; assay type: cell-based; details: HEK293, 50 μM, 3 d
Protocol: as §4
as §3, with “Bn-O-glycans were then eluted with two 1.5-ml applications of 50% (vol/vol) acetonitrile, 0.1% (vol/vol) TFA. Eluent was divided into three fractions, concentrated by CentriVap to remove organic solvents, and lyophilized.” left out
as §1

[2] = Stability of peracetylation in complete media; assay type: physicochemical
Protocol: as §2

peracetylation stable in complete media [2]	SMILES	Bn-O-glycans secreted by cells incubated with the compound (cells)	lowest concentration at which Bn-O-glycans with the predicted sialylated core 2 structure were observed [1]	uptake and modification of the O-glycan precursor by glycosyltransferases (core 1- and core 2-based Bn-O-glycan compositions observed) (Molt-4)	uptake and modification of the O-glycan precursor by glycosyltransferases (core 1- and core 2-based Bn-O-glycan compositions observed) (HEK293)	effect of increasing concentration on Bn-O-glycan abundance ([1]; 2-4 d)	lowest concentration at which Bn-O-glycans in culture media were seen ([1]; 2 d)
	CC(=O)N[C@H]1[C@H](OCc2ccccc2)O[C@H](COC(C)=O)[C@@H](OC(C)=O)[C@@H]1OC(C)=O [Ac3GlcNAc-β-Bn]	no glycans or a trisaccharide (Sia-Gal-GlcNAc-Bn) only; also recorded: no Bn-O-glycans or only the simple trisaccharide Neu5Ac-Gal-GlcNAc-Bn					
	CC(=O)N[C@H]1[C@@H](OCc2ccccc2)O[C@H](CO)[C@H](O)[C@@H]1O [Bn-α-GalNAc, reference compound]		250 µM				
at least 3 d	CC(=O)N[C@H]1[C@@H](OCc2ccccc2)O[C@H](COC(C)=O)[C@H](OC(C)=O)[C@@H]1OC(C)=O [Ac3GalNAc-α-Bn, peracetylated benzyl-α-N-acetylgalactosamine]		25 µM	efficient uptake and modification	efficient uptake and modification	shifted abundance from disialylated to monosialylated core 2	5 µM
